The CheMixHub viscosity set
Where “and” joins values, the source holds several entries; their conditions need not be identical. Identical values can stand only once.

How the values were obtained:
[1] = xn = mol fraction of the nth substance listed

ClCCCCCl
101 kPa
Details	viscosity [mPa·s]
298.15 K	1.319
303.15 K	1.218
308.15 K	1.128
313.15 K	1.043

NN
viscosity [mPa·s]
Details	293.15 K	303 K	313 K
101 kPa	–	0.85	0.75
101.3 kPa	0.94	–	–

CCC(=O)O
viscosity
Details	293.15 K	298.15 K	303.15 K	313.15 K	318.15 K	323.15 K
101 kPa	1.1 mPa·s and 1.07 mPa·s and 1.102 mPa·s	–	–	–	–	0.75 mPa·s
101.33 kPa	1.103 mPa·s and 1.156 mPa·s and 1.101 mPa·s	1.03 mPa·s	0.96 mPa·s and 0.944 mPa·s	0.8453 mPa·s and 0.901 mPa·s and 0.84 mPa·s	0.783 mPa·s	0.8102 mPa·s

CCCCN(CCO)CCCC
Details	viscosity [mPa·s]
303.15 K, 100 kPa	4.6

CCCCCCCCCCCCC
viscosity
Details	293.15 K	298.15 K	308.15 K	318.15 K	323.15 K
100 kPa	1.8 mPa·s and 1.803 mPa·s	1.71 mPa·s	1.428 mPa·s and 1.319 mPa·s	1.215 mPa·s	1.124 mPa·s and 1.1 mPa·s and 1.104 mPa·s
103 kPa	–	1.63 mPa·s	1.356 mPa·s	1.146 mPa·s	–

Cc1ccccc1Cl
viscosity
Details	298.15 K	303.15 K	308.15 K	313.15 K	318.15 K
100 kPa	0.971 mPa·s	0.886 mPa·s	0.808 mPa·s and 0.857 mPa·s	0.728 mPa·s	0.642 mPa·s and 0.763 mPa·s
101 kPa	–	0.886 mPa·s	0.808 mPa·s	0.741 mPa·s and 0.728 mPa·s	0.642 mPa·s

CCCC[n+]1ccc(C)cc1.F[B-](F)(F)F
101 kPa
Details	viscosity [mPa·s]
298.15 K	196.2
313.15 K	80.85
323.15 K	50.22

CCC(C)c1ccccc1 (centres undefined)
102 kPa
Details	viscosity [mPa·s]
293.15 K	0.932
303.15 K	0.812
313.15 K	0.712
323.15 K	0.632

C1C[C@@H]2[C@H]3CC[C@H](C3)[C@@H]2C1
viscosity
Details	293.15 K	298.15 K	303.15 K	308.15 K
100 kPa	2.974 mPa·s and 3.07 mPa·s	2.785 mPa·s and 2.694 mPa·s	2.535 mPa·s and 2.454 mPa·s	2.243 mPa·s
101 kPa	–	2.77 mPa·s	–	–
101.33 kPa	–	2.769 mPa·s	–	2.283 mPa·s

Nc1cccc(Cl)c1
101 kPa
Details	viscosity [mPa·s]
298.15 K	3.495
303.15 K	3.256

CC12CCC(CC1)C(C)(C)O2
101 kPa
Details	viscosity [mPa·s]
298.15 K	2.6
303.15 K	2.066
308.15 K	1.856
313.15 K	1.676
318.15 K	1.73

CNN
Details	viscosity [mPa·s]
293.15 K, 101.3 kPa	0.96

CCCCN(CCO)CCO
101 kPa
Details	viscosity [mPa·s]
303.15 K	41.29
308.15 K	31.59
313.15 K	24.47
318.15 K	19.39
323.15 K	15.47

CCCCCCCN
Details	viscosity [mPa·s]
303.15 K, 101 kPa	0.8789

Nc1cccc(Cl)c1 + CCCCCCCCO
viscosity [mPa·s], [1], 101 kPa
Details	x1 = 0.1441	x1 = 0.2748	x1 = 0.3937	x1 = 0.5026	x1 = 0.6025	x1 = 0.6945	x1 = 0.7795	x1 = 0.8584	x1 = 0.9317
303.15 K	6.059	5.754	5.485	5.247	5.034	4.844	4.674	4.519	4.379
308.15 K	5.155	4.924	4.723	4.547	4.391	4.253	4.131	4.02	3.924
313.15 K	4.409	4.229	4.076	3.941	3.823	3.721	3.63	3.551	3.483
318.15 K	3.856	3.697	3.564	3.448	3.347	3.258	3.181	3.114	3.06

CC(=O)CCC(=O)O + CCCC[N+](CCCC)(CCCC)CCCC.[Br-]
viscosity [mPa·s], [1], 101 kPa
Details	293.15 K	298.15 K	303.15 K	308.15 K	313.15 K	318.15 K	323.15 K
x1 = 0.75	376.5	–	175.1	–	93.88	–	53.38
x2 = 0.25	–	261.9	169.6	118.6	89.13	64.47	46.13

CCC(N)C(=O)[O-].[Na+] (centres undefined) + O
viscosity [mPa·s], [1], 101.3 kPa
Details	x1 = 0.009	x1 = 0.018	x1 = 0.029	x1 = 0.039	x1 = 0.05	x1 = 0.062
303.15 K	1.034	1.36	1.815	2.492	3.501	4.954
308.15 K	0.924	1.217	1.595	2.167	3.005	4.223
313.15 K	0.836	1.093	1.417	1.91	2.608	3.646
318.15 K	0.76	0.98	1.27	1.695	2.295	3.173
323.15 K	0.697	0.9	1.143	1.516	2.029	2.777

CCC(=O)O + CCc1ccccc1
[1], 308.15 K, 101.33 kPa
Details	viscosity [mPa·s]
x1 = 0.1393	0.5916
x1 = 0.2634	0.6031
x1 = 0.3813	0.6196
x1 = 0.4881	0.6386
x1 = 0.5891	0.6621
x1 = 0.6835	0.6881
x1 = 0.7694	0.721
x1 = 0.8518	0.7666
x1 = 0.9275	0.8175

C1C[C@@H]2[C@H]3CC[C@H](C3)[C@@H]2C1 + c1ccc2c(c1)CCCC2
viscosity [mPa·s], [1], 100 kPa
Details	x1 = 0.1003	x1 = 0.1991	x1 = 0.3022	x1 = 0.407	x1 = 0.4996	x1 = 0.5992	x1 = 0.7019	x1 = 0.7987	x1 = 0.8983
293.15 K	2.201	2.214	2.254	2.299	2.355	2.438	2.543	2.668	2.807
298.15 K	1.994	2.008	2.043	2.088	2.139	2.214	2.307	2.416	2.546
303.15 K	1.816	1.831	1.864	1.904	1.952	2.019	2.106	2.202	2.319
308.15 K	1.664	1.678	1.708	1.746	1.79	1.851	1.929	2.018	2.122
313.15 K	1.531	1.545	1.574	1.608	1.648	1.704	1.775	1.855	1.95
318.15 K	1.414	1.428	1.454	1.486	1.523	1.574	1.639	1.712	1.798
323.15 K	1.311	1.325	1.349	1.379	1.413	1.459	1.519	1.586	1.663

OC(O)C(Cl)(Cl)Cl + O
[1], 293.15 K, 101 kPa
Details	viscosity [mPa·s]
x1 = 0.026	1.276
x1 = 0.0441	1.631
x1 = 0.06	1.841

CC(=O)C=C(C)C
Details	viscosity [mPa·s]
298.15 K, 101 kPa	0.876

CCCCCCCCCCCCCC[P+](CCCCCC)(CCCCCC)CCCCCC.c1c[n-]nn1 + O=C=O
Details	viscosity [mPa·s]
[1], 298.15 K, 100 kPa, x2 = 0.38	419
